Results on two compounds are retold here after US9643994B2, “Crystalline polymorphic form of ulipristal acetate” (ASKA PHARMACEUTICAL CO., LTD., priority 2012, dated 2017).

≈ marks a conversion by molar mass, not a printed value. Where two headings read alike, the source gives them in different places.

This data set in a line: Solubility in ethanol/water (10/90) mixed solvent at 37° C., HPLC quantitation. Type of data set: physicochemical. The source says: [Solubility] […] Then a portion of the suspension was separated.

The Solubility is the concentration that dissolves in the medium under given conditions. On to `CC(=O)O[C@]1(C(C)=O)CCC2C3CCC4=CC(=O)CCC4=C3[C@@H](c3ccc(N(C)C)cc3)C[C@@]21C` (stereo partly drawn) [Example 1, 17alpha-acetoxy-11beta-(4-N,N-dimethylaminophenyl)-19-norpregna-4,9-diene-3,20-dione], for which, for the setting “40 mg in 40 mL ethanol/water (volume ratio)=10/90, 37° C., stirred 5 minutes, filtered, HPLC UV 302 nm”, the Solubility is 9.2 µg/mL.
The compound `CC(=O)O[C@]1(C(C)=O)CCC2C3CCC4=CC(=O)CCC4=C3[C@@H](c3ccc(N(C)C)cc3)C[C@@]21C` (stereo partly drawn) [Comparative Example, 17alpha-acetoxy-11beta-(4-N,N-dimethylaminophenyl)-19-norpregna-4,9-diene-3,20-dione] came in with a Solubility of 6.4 µg/mL (≈ 13.5 µM).
